Laboratory results as given in article PMC7979488 (ChemMedChem, 2020).
Where two headings read alike, the source gives them in different places.

Legend:
SARS-CoV-2 [1] = assay type: cell-based
SARS-CoV-2 [2] = assay type: cell-based; conditions: A549/ACE2 cells
[3] = Vero E6 cells, tested range 80 nM to 10 μM, two repeats

O=C[C@H](C[C@@H]1CCNC1=O)NC(=O)[C@H](CC1CCCCC1)NC(=O)c1cc2ccccc2[nH]1 [11a, reference compound] was tested, and the “concentration at which SARS-CoV-2-induced CPE was completely abolished” value (SARS-CoV-2 [1]; [3]) was 10 µM.
O=C[C@H](C[C@@H]1CCNC1=O)NC(=O)[C@H](Cc1ccccc1)NC(=O)/C=C/c1ccc(Cl)cc1F [MPI2] was tested, and the “concentration at which SARS-CoV-2-induced CPE was completely abolished” value (SARS-CoV-2 [1]; [3]) was 10 µM.
For CC(C)C[C@H](NC(=O)[C@@H](NC(=O)OCc1ccccc1)C(C)C)C(=O)N[C@H](C=O)C[C@@H]1CCNC1=O [MPI3], the “complete prevention of CPE (in words)” value (SARS-CoV-2 [1]; Vero E6 cells, tested range 80 nM to 10 μM) was “not able to completely prevent CPE at all tested concentrations”.
CC(C)[C@H](NC(=O)OCc1ccccc1)C(=O)N[C@@H](CC1CCCCC1)C(=O)N[C@H](C=O)C[C@@H]1CCNC1=O [MPI5] was tested, and the “concentration at which SARS-CoV-2-induced CPE was completely abolished” value (SARS-CoV-2 [1]; [3]) was 5 µM, the “concentration for complete prevention of SARS-CoV-2-induced CPE” value (SARS-CoV-2 [2]; as stated in abstract) was 0.16 to 0.31 µM and the “concentration for complete abolition of CPE” value (SARS-CoV-2 [2]; tested range 80 nM to 10 μM) was 160 to 310 nM.
With CC(OC(C)(C)C)[C@H](NC(=O)OCc1ccccc1)C(=O)N[C@@H](Cc1ccccc1)C(=O)N[C@H](C=O)C[C@@H]1CCNC1=O (stereo partly drawn) [MPI7] the “concentration at which SARS-CoV-2-induced CPE was completely abolished” value (SARS-CoV-2 [1]; [3]) was 2.5 to 5 µM and the “complete abolition of CPE / potency (in words)” value (SARS-CoV-2 [2]; tested range 80 nM to 10 μM) was “not able to completely abolish CPE at all tested conditions”.
With GC376 [reference compound] the “concentration at which SARS-CoV-2-induced CPE was completely abolished” value (SARS-CoV-2 [1]) was 10 µM.
